“Also recorded” adds a separate entry of the source. Like-named read-outs stand apart in the source and are kept apart here.
What was measured:
[1] = target: T1, muscarinic receptors, NG108-15 cell membranes (m3 AChR) (Mus musculus, UniProt P32211); experiment: Inhibition of [3H]-NMS binding to membranes from NG108-15 cells; conditions: for inhibition at 50 µM: read-out: binding (% inhibition of 3H-NMS binding); for inhibition at 100 µM: conc. of compounds = 100 μM
T1 construct: membranes from NG108-15 cells; endogenous in cells; host or cells: NG108-15 neuroblastoma x glioma hybrid cells (crude membrane fraction)
T1 sequence (P32211 1-479): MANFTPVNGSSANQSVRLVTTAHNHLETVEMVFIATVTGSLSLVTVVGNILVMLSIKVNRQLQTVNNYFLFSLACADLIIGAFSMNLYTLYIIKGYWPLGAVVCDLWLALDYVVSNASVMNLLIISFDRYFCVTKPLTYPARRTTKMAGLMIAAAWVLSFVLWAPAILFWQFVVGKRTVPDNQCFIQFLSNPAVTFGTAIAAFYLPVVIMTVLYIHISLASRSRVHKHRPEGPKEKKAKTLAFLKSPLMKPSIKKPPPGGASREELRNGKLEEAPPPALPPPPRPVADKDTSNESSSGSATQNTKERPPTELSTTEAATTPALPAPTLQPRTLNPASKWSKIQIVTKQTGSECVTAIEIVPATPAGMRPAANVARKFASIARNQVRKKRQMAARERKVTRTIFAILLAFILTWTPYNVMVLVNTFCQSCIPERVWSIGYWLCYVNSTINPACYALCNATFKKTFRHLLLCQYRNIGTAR
Description: (§1) Compounds of the present invention were screened for their biological activity. Assay systems using SK-N-SH human neuroblastoma cells which express only m4 -AChRs coupled to PI turnover, and NG108-15 neuroblastoma x glioma cells which express only m3 AChRs coupled to adenylate cyclase inhibition were used.
(§2) Compounds of the present invention were also screened for their relative binding affinities. Assay systems which measured the inhibition of ^3 H-N-methylscopolamine (^3 H-NMS) binding to membranes from NG108-15 cells and membranes from SK-N-SH cells were used.
(§3) Inhibition of [^3 H]-NMS binding
(§4) Cells were grown to confluence, harvested, and a crude membrane fraction was obtained. […] The total volume was 1 mL. The incubation was terminated by rapid filtration over GF/B filters using a Brandel cell harvester. The filters were washed three times with ice-cold 0.9% NaCl, equilibrated in scintillation counting fluid and counted on a Beckman LS 5801 liquid scintillation counter at 47% efficiency. Non-specific binding was determined by coincubation with 1 μM atropine, and amounted to less than 15% of total counts. It was routinely subtracted from the total counts.

[2] = test system: SK-N-SH human neuroblastoma cells (m4 AChR); experiment: Stimulation of PI turnover in SK-N-SH cells; type: cell-based; conditions: for Emax at 100 µM: Homo sapiens, 0.5 h
Experimental: (§5) Compounds of the present invention were tested for their binding affinities and activation of second messengers in selective muscarinic cholinergic receptor systems. It is believed that m1 -, m4 -, and m5 AChRs couple exclusively to PI turnover, whereas m2 - and m3 -AChRs couple only to adenylate cyclase inhibition.
as §1
Stimulation of PI turnover in SK-N-SH cells
Cells were plated into 24-well plates at 100,000 cells per well. After 24 hours, they were labeled overnight with 2 μCi per well of [^3 H]-myo-inositol (American Radiolabeled Chemicals, Inc., St. Louis, Mo.; 15 Ci/mM; 2 μL of stock per mL of media). The cells were then rinsed twice with 10 mM LiCl in DMEM-Hepes and the cells were incubated in this solution for 5 min at 37° C. The indicated compound was then added at a final concentration of 100 μM and the cells were incubated for another 30 min at 37° C. The reaction was stopped by aspirating the solution and adding cold methanol to the cells. After transferring the cells to a glass tube and sonicating briefly, chloroform and water were added to make a two-phase system. The upper aqueous phase was applied to 0.6 mL anion exchange columns (AG X8, Bio-Rad) and the columns were washed and total inositol phosphates were eluted with 1M ammonium formate and 0.1M formic acid.

[3] = target: T2, muscarinic receptors, SK-N-SH cell membranes (m4 AChR) (Homo sapiens, UniProt P20309); experiment: Inhibition of [3H]-NMS binding to membranes from SK-N-SH cells; conditions: for inhibition at 50 µM: read-out: binding (% inhibition of 3H-NMS binding); for inhibition at 100 µM: conc. of compounds = 100 μM
T2 construct: membranes from SK-N-SH cells; endogenous in cells; host or cells: SK-N-SH human neuroblastoma cells (crude membrane fraction)
Description: as §1, §2, §3, §4

[4] = test system: NG108-15 neuroblastoma x glioma cells (m3 AChR); experiment: Inhibition of PGE1-stimulated cAMP levels in NG108-15 cells; type: cell-based; conditions: read-out: cAMP Inhib (relative to OXO-M)
[5] = test system: muscarinic receptors; conditions: literature; cited from earlier work
[6] = test system: NG108-15 neuroblastoma x glioma cells (m3 AChR); experiment: Inhibition of PGE1-stimulated cAMP levels in NG108-15 cells; type: cell-based; conditions: for inhibition at 100 µM: NG108-15, NG108-15 cells, read-out: cAMP Inhib; for inhibition at 100 µM / cAMP Inhib: relative to control with no compounds added, conc. of compounds = 100 μM; for cAMP Inhib / agonist activity in NG108-15 cells (cAMP inhibition), in words: NG108-15 cells; for cAMP Inhib: 100 µM; for agonist selectivity, in words: NG108-15 (cAMP) versus SK-N-SH (PI turnover)
Experimental: as §5, §1
Inhibition of PGE1 -stimulated cAMP levels in NG108-15 cells
Cells were plated in 24-well plates and were grown to 90% confluence. The growth media was then replaced with a solution of 1 mM IBMX in DMEM-Hepes (0.5 mL per well) and the cells were incubated for 10 min at 37° C. Agonists were then added at a final concentration of 100 μM, along with PGE1 (final conc, 5 μM), and the cells were incubated for a further 15 min at 37° C. The reaction Was terminated by aspirating the solution and adding 0.5 mL of 0.1N HCl. In order to extract the cAMP from the cells, they were incubated in 0.1 N HCl for 30 min at room temperature. An aliquot (35 50 μL) was removed, lyophilized, and assayed for cAMP by radioimmunoassay.

[7] = NG108-15 cells, conc. of compound = 50 μM
[8] = SK-N-SH cells, data relative to OXO-M, conc. of compounds = 100 μM, read-out: Pi turnover (relative to OXO-M)
[9] = SK-N-SH cells, conc. of compound = 50 μM
[10] = 0.25 h, NG108-15 cells, data relative to OXO-M, conc. of compounds = 50 μM
[11] = SK-N-SH cells, percent relative to the activity of OXO-M, conc. of compounds = 100 μM, read-out: Pi turnover

T2 sequence (P20309 whole entry): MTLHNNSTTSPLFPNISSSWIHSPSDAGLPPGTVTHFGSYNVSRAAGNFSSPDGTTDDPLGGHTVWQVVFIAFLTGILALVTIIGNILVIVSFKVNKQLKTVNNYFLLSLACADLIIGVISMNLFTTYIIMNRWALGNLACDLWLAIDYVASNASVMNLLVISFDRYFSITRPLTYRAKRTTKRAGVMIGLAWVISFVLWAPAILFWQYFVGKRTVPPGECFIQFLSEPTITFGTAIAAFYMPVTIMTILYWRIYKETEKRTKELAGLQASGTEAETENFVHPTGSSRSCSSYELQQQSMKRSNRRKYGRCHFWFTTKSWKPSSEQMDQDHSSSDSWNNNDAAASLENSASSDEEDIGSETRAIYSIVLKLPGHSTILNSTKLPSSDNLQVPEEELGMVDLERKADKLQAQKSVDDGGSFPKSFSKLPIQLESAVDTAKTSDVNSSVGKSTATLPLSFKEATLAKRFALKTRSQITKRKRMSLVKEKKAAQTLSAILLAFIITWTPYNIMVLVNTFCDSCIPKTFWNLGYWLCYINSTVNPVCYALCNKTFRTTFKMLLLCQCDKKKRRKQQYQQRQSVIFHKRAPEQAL

CN(CC#CCN1CCCC1)C(=O)c1cccc(Cl)c1 [Compound 026]
inhibition at 50 µM [1, 7]: 17 ± 4%
Emax at 100 µM [2, 8]: 1 ± 1%
inhibition at 50 µM [3, 9]: 27 ± 10%
Emax at 50 µM [4, 10]: 30 ± 10%

CN(CC#CCN1CCCC1)C(=O)c1ccccc1 [Compound 032]
inhibition at 50 µM [1, 7]: 7 ± 4%
Emax at 100 µM [2, 8]: 4 ± 2%
inhibition at 50 µM [3, 9]: 20 ± 5%
Emax at 50 µM [4, 10]: 50 ± 20%

CC(=O)N(C)C(C)C#CCN1CCCC1 (centres unmarked) [BM 5, reference compound]
inhibition at 50 µM [1, 7]: 91 ± 1%
inhibition at 100 µM ([1]; NG108-15 cells): 97 ± 2%
inhibition at 50 µM [3, 9]: 95 ± 1%
inhibition at 100 µM ([3]; SK-N-SH cells): 99 ± 1%
muscarinic activity, in words [5]: potent muscarinic agent with presynaptic antagonist and postsynaptic agonist activity

COc1ccc(NC(=O)N(C)CC#CCN2CCCC2)cc1 [Compound 028]
inhibition at 50 µM [1, 7]: 24 ± 6%
inhibition at 50 µM [3, 9]: 61 ± 12%
Emax at 50 µM [4, 10]: 20 ± 10%

CN(CC#CCN1CCCC1)CCC1OCCO1 [Compound 031]
inhibition at 50 µM [1, 7]: 7 ± 5%
inhibition at 50 µM [3, 9]: 20 ± 3%
Emax at 50 µM [4, 10]: 50 ± 10%

CN(CC#CCN1CCCC1)C(=O)CCC(=O)NCCN [Compound 019, N-Methyl-N-[4-(1-pyrrolidinyl)-2-butynyl]-2-[4-(2-aminoethyl)carboxamido]propanamide]
inhibition at 50 µM [1, 7]: 14 ± 2%
inhibition at 50 µM [3, 9]: 25 ± 5%
Emax at 50 µM [4, 10]: 10 ± 10%

C[N+](C)(C)CC#CCN1CCCC1=O [OXO-M, oxotremorine-M, reference compound]
inhibition at 100 µM [6]: 64.1 ± 1.9%
cAMP Inhib [6]: 65±3%
inhibition at 50 µM [1, 7]: 74 ± 3%
inhibition at 100 µM ([1]; NG108-15 cells): 96.2 ± 2.1%
Emax at 100 µM [2, 8]: 100%
Emax at 100 µM [2, 11]: 100%
inhibition at 50 µM [3, 9]: 49 ± 12%
inhibition at 100 µM ([3]; SK-N-SH cells): 52.1 ± 1.2%
Emax at 50 µM [4, 10]: 100%

CC(=O)NCCNC(=O)CCC(=O)N(C)CC#CCN1CCCC1 [Compound 023]
inhibition at 50 µM [1, 7]: 6 ± 4%
Emax at 100 µM [2, 8]: 6 ± 4%
inhibition at 50 µM [3, 9]: 6 ± 5%
Emax at 50 µM [4, 10]: 20 ± 10%

CC(=O)N(C)CC#CCN1CCCC1 [UH 5, reference compound]
agonist selectivity, in words [6]: acted as an agonist in both systems
inhibition at 100 µM [6]: 63.2 ± 6%
cAMP Inhib [6]: 63%
Emax at 100 µM [2, 11]: 54%
muscarinic activity, in words [5]: maintains agonist activity and is nearly equi-potent to oxotremorine

CN(CC#CCN1CCCC1)C(=O)CCC(=O)O [Compound 008, N-Methyl-N-[4-(1-pyrrolidinyl)-2-butynyl]-3-carboxypropanamide]
inhibition at 50 µM [1, 7]: 1 ± 1%
inhibition at 50 µM [3, 9]: 7 ± 2%
Emax at 50 µM [4, 10]: 10 ± 10%

O=C1CCCN1CC#CCN1CCCC1 [oxotremorine]
muscarinic activity, in words [5]: potent and moderately selective central muscarinic agonist

CC(=O)NCC(=O)N(C)CC#CCN1CCCC1 [Compound 010, N-Methyl-N-[4-(1-pyrrolidinyl)-2-butynyl]-2-(N-acetylamino)acetamide]
inhibition at 100 µM [6]: 14.1 ± 2.3%
agonist activity in NG108-15 cells (cAMP inhibition), in words [6]: substantial activity
inhibition at 100 µM ([1]; NG108-15 cells): 24 ± 5.4%
Emax at 100 µM [2, 11]: 8 ± 3%
inhibition at 100 µM ([3]; SK-N-SH cells): 12.5 ± 2.8%

CN(CC#CCN1CCCC1)CC1OCCO1 [Compound 029, N-(2,5-dioxolylmethyl)-N-methyl-4-(1-pyrrolidinyl)-2-butynamine]
inhibition at 50 µM [1, 7]: 5 ± 5%
inhibition at 50 µM [3, 9]: 19 ± 5%
Emax at 50 µM [4, 10]: 40 ± 10%

CN(CC#CCN1CCCC1)C(=O)CN [Compound 007, N-Methyl-N-[4-(1-pyrrolidinyl)-2-butynyl]-2-aminoacetamide]
agonist selectivity, in words [6]: selective agonists
inhibition at 100 µM [6]: 26.1 ± 1.6%
agonist activity in NG108-15 cells (cAMP inhibition), in words [6]: most active as agonists in NG108-15 cells; also recorded: approximately half as active as the full agonist oxotremorine-M
inhibition at 100 µM ([1]; NG108-15 cells): 23.5 ± 4%
stimulation of PI turnover, in words ([2]; SK-N-SH cells): inactive in SK-N-SH cells
inhibition at 100 µM ([3]; SK-N-SH cells): 17.3 ± 3.3%

CN(CC#CCN1CCCC1)C(=O)CCN [Compound 017]
agonist selectivity, in words [6]: selective agonists
inhibition at 100 µM [6]: 20.8 ± 1.7%
agonist activity in NG108-15 cells (cAMP inhibition), in words [6]: most active as agonists in NG108-15 cells; also recorded: approximately half as active as the full agonist oxotremorine-M
inhibition at 100 µM ([1]; NG108-15 cells): 15.1 ± 3.5%
stimulation of PI turnover, in words ([2]; SK-N-SH cells): inactive in SK-N-SH cells
inhibition at 100 µM ([3]; SK-N-SH cells): 18.1 ± 2.8%

COC(=O)CCC(=O)N(C)CC#CCN1CCCC1 [Compound 009, N-Methyl-N-[4-(1-pyrrolidinyl)-2-butynyl]-3-methoxycarbonylpropanamide]
inhibition at 50 µM [1, 7]: 5 ± 3%
inhibition at 50 µM [3, 9]: 8 ± 1%
Emax at 50 µM [4, 10]: 10 ± 10%

CN(CC#CCN1CCCC1)C(=O)Oc1ccc(Cl)cc1 [Compound 027]
inhibition at 50 µM [1]: 27 ± 4%
Emax at 100 µM ([2]; SK-N-SH, read-out: Pi turnover (relative to OXO-M)): 1 ± 1%
inhibition at 50 µM [3]: 62 ± 1%
Emax at 50 µM ([4]; NG108-15, 0.25 h): 40 ± 10%

From patent publication US5274121A, “N-methyl-N-[4-(1-pyrrolidinyl)-2-butynyl]amide congeners as muscarinic agents” (priority 1992, dated 1993)
